Assay results reported in USRE48711E1, “Apoptosis signal-regulating kinase inhibitors” (Gilead Sciences, Inc., priority 2009, dated 2021).

Biological target: ASK1 (Apoptosis Signal-Regulating Kinase 1) (Homo sapiens (Human), UniProt Q99683)
Test: ASK1 (Apoptosis Signal-Regulating Kinase 1) TR-FRET Kinase Assay (Biochemical IC50)
Conditions: TR-FRET, biotin-MBP substrate, 20 min pre-incubation, ATP added as 300 μM solution
Experimental: The ability of compounds to inhibit ASK1 kinase activity was determined using a time resolved fluorescence resonance energy transfer [TR-FRET] assay utilizing biotinylated myelin basic protein [biotin-MBP] as the protein substrate. […] The enzyme was allowed to pre-incubate with compound for 20 minutes prior to initiating the kinase reaction with the addition of 5 μL/well 300 μM ATP in buffer (50 mM MOPS, pH 7.0, 5 mM Mg-acetate, 1 mM DTT, 5% DMSO) using the Decrac Fluidics Equator. The kinase reactions were allowed to proceed for 20 minutes at ambient temperature and were subsequently stopped with the addition of 5 μL/well 25 mM EDTA using the Deerac Fluidics Equator. […] The TR-FRET signal was then read on a Perkin. Elmer Envision plate reader after incubating the plates at ambient temperature for 2 hours.

ASK1 (Apoptosis Signal-Regulating Kinase 1), sequence (Q99683 649-946): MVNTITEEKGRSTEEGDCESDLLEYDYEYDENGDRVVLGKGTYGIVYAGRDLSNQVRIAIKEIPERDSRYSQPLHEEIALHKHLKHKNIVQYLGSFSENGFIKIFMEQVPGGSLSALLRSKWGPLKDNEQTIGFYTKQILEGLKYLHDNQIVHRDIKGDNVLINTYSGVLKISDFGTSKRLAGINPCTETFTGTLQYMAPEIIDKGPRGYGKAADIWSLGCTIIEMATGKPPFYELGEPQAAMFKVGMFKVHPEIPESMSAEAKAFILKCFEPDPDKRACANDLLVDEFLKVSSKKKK

Structure (SMILES) | IC50 [nM]
O=C(Nc1cccc(-c2nncn2C2CC2)c1)c1cc(-c2cnc(C3CC3)nc2)ccn1 [Example 123, N-(3-(4-cyclopropyl-4H-1,2,4-triazol-3-yl)phenyl)-4-(2-cyclopropylpyrimidin-5-yl)picolinamide] | 10
O=C(Nc1cccc(-c2nncn2C2CC2)c1)c1cc(-c2cnc3ccccc3c2)cc(C(F)(F)F)n1 [Example 125, N-(3-(4-cyclopropyl-4H-1,2,4-triazol-3-yl)phenyl)-4-(quinolin-3-yl)-6-(trifluoromethyl)picolinamide] | 1450
O=C(Nc1cccc(-c2cncn2C2CC2)n1)c1cc(-c2cnc3ccccc3c2)ccn1 [Example 126, N-(6-(1-cyclopropyl-1H-imidazol-5-yl)pyridin-2-yl)-4-(quinolin-3-yl)picolinamide] | 1040
O=C(Nc1cccc(-c2cncn2C2CC2)n1)c1cc(-c2ccc(C3CC3)nc2)ccn1 [Example 127, 6-cyclopropyl-N-(6-(1-cyclopropyl-1H-imidazol-5-yl)pyridin-2-yl)-3,4′-bipyridine-2′-carboxamide] | 211
O=C(Nc1cccc(-c2nncn2C2CC2)c1)c1cc(-c2ccc(C3CC3)cc2)ccn1 [Example 129, N-(3-(4-cyclopropyl-4H-1,2,4-triazol-3-yl)phenyl)-4-(4-cyclopropylphenyl)picolinamide] | 22
CSc1ccc(-c2ccnc(C(=O)Nc3cccc(-c4nncn4C4CC4)c3)c2)cn1 [Example 131, N-(3-(4-cyclopropyl-4H-1,2,4-triazol-3-yl)phenyl)-6-(methylthio)-3,4′-bipyridine-2′-carboxamide] | 11
CC(C)CSc1ccc(-c2ccnc(C(=O)Nc3cccc(-c4nncn4C4CC4)c3)c2)cn1 [Example 132, N-(3-(4-cyclopropyl-4H-1,2,4-triazol-3-yl)phenyl)-6-(isobutylthio)-3,4′-bipyridine-2′-carboxamide] | 150
O=C(Nc1cccc(-c2nncn2C2CC2)c1)c1cc(-c2cnc(C3CC3)c(F)c2)ccn1 [Example 134, 6-cyclopropyl-N-(3-(4-cyclopropyl-4H-1,2,4-triazol-3-yl)phenyl)-5-fluoro-3,4′-bipyridine-2′-carboxamide] | 34
O=C(Nc1cccc(-c2nncn2C2CC2)c1)c1cc(-c2cnc(C3CC3)c(Cl)c2)ccn1 [Example 135, 5-chloro-6-cyclopropyl-N-(3-(4-cyclopropyl-4H-1,2,4-triazol-3-yl)phenyl)-3,4′-bipyridine-2′-carboxamide] | 131
CS(=O)(=O)N1CCN(c2ccnc(C(=O)Nc3cccc(-c4nncn4C4CC4)c3)c2)CC1 [Example 137, N-(3-(4-cyclopropyl-4H-1,2,4-triazol-3-yl)phenyl)-4-(4-(methylsulfonyl)piperazin-1-yl)picolinamide] | 31
CCc1ncc(-c2ccnc(C(=O)Nc3cccc(-c4nncn4C4CC4)c3)c2)cc1F [Example 138, N-(3-(4-cyclopropyl-4H-1,2,4-triazol-3-yl)phenyl)-6-ethyl-5-fluoro-3,4′-bipyridine-2′-carboxamide] | 8
CCc1ncc(-c2ccnc(C(=O)Nc3cccc(-c4nncn4C4CC4)c3)c2)cc1Cl [Example 139, 5-chloro-N-(3-(4-cyclopropyl-4H-1,2,4-triazol-3-yl)phenyl)-6-ethyl-3,4′-bipyridine-2′-carboxamide] | 16
CCc1cc(-c2ccnc(C(=O)Nc3cccc(-c4nncn4C4CC4)c3)c2)cnc1CC [Example 141, N-(3-(4-cyclopropyl-4H-1,2,4-triazol-3-yl)phenyl)-5,6-diethyl-3,4′-bipyridine-2′-carboxamide] | 13
CCc1ncc(-c2ccnc(C(=O)Nc3cccc(-c4nncn4C4CC4)c3)c2)cn1 [Example 145, N-(3-(4-cyclopropyl-4H-1,2,4-triazol-3-yl)phenyl)-4-(2-ethylpyrimidin-5-yl)picolinamide] | 7
O=C(Nc1ccc(F)c(-c2nncn2C2CC2)c1)c1cc(-c2ccc(C3CC3)nc2)ccn1 [Example 147, 6-cyclopropyl-N-(3-(4-cyclopropyl-4H-1,2,4-triazol-3-yl)-4-fluorophenyl)-3,4′-bipyridine-2′-carboxamide] | 400
CCc1ccc(-c2ccnc(C(=O)Nc3ccc(F)c(-c4nncn4C4CC4)c3)c2)cn1 [Example 148, N-(3-(4-cyclopropyl-4H-1,2,4-triazol-3-yl)-4-fluorophenyl)-6-ethyl-3,4′-bipyridine-2′-carboxamide] | 56
CC(C)(C)c1ccc(-c2ccnc(C(=O)Nc3cccc(-c4nncn4C4CC4)c3)c2)cn1 [Example 149, 6-tert-butyl-N-(3-(4-cyclopropyl-4H-1,2,4-triazol-3-yl)phenyl)-3,4′-bipyridine-2′-carboxamide] | 25
O=C(Nc1ccnc(-c2nncn2C2CC2)c1)c1cc(-c2ccc(C3CC3)nc2)ccn1 [Example 152, 6-cyclopropyl-N-(2-(4-cyclopropyl-4H-1,2,4-triazol-3-yl)pyridin-4-yl)-3,4′-bipyridine-2′-carboxamide] | 286
O=C(Nc1cccc(-c2nncn2C2CC2)c1)c1cc(-c2cnc3c(c2)CNCC3)ccn1 [Example 154, N-(3-(4-cyclopropyl-4H-1,2,4-triazol-3-yl)phenyl)-4-(5,6,7,8-tetrahydro-1,6-naphthyridin-3-yl)picolinamide] | 34
O=C(Nc1cccc(-c2nncn2C2CC2)c1F)c1cc(-c2ccc(C3CC3)nc2)ccn1 [Example 155, 6-cyclopropyl-N-(3-(4-cyclopropyl-4H-1,2,4-triazol-3-yl)-2-fluorophenyl)-3,4′-bipyridine-2′-carboxamide] | 10
O=C(Nc1cccc(-c2nncn2C2CC2)c1)c1cc(-c2cncc(C3CC3)c2)ccn1 [Example 156, 5-cyclopropyl-N-(3-(4-cyclopropyl-4H-1,2,4-triazol-3-yl)phenyl)-3,4′-bipyridine-2′-carboxamide] | 11
O=C(Nc1cccc(-c2nncn2C2CC2)c1F)c1cc(-c2cccnc2)ccn1 [Example 157, N-(3-(4-cyclopropyl-4H-1,2,4-triazol-3-yl)-2-fluorophenyl)-3,4′-bipyridine-2′-carboxamide] | 38
Cc1ncn(-c2ccnc(C(=O)Nc3cccc(-c4nncn4C4CC4)n3)c2)c1C [Example 160, N-(6-(4-cyclopropyl-4H-1,2,4-triazol-3-yl)pyridin-2-yl)-4-(4,5-dimethyl-1H-imidazol-1-yl)picolinamide] | 4

The remaining compounds from weak to strong by IC50, led by results:

IC50 [nM] | Structure (SMILES)
422 | O=C(Nc1cccc(-c2nncn2C2CC2)c1)c1cc(-c2cccnc2)cc(C(F)(F)F)n1 [Example 124, N-(3-(4-cyclopropyl-4H-1,2,4-triazol-3-yl)phenyl)-6′-(trifluoromethyl)-3,4′-bipyridine-2′-carboxamide]
409 | O=C(Nc1ccnc(-c2nncn2C2CC2)c1)c1cc(-c2cnc3ccccc3c2)ccn1 [Example 153, N-(2-(4-cyclopropyl-4H-1,2,4-triazol-3-yl)pyridin-4-yl)-4-(quinolin-3-yl)picolinamide]
17 | O=C(Nc1cccc(-c2nncn2C2CC2)n1)c1cccc(-c2cnc3ccccc3c2)c1 [Example 150, N-(6-(4-cyclopropyl-4H-1,2,4-triazol-3-yl)pyridin-2-yl)-3-(quinolin-3-yl)benzamide]
15 | Cn1cnc2cc(-c3ccnc(C(=O)Nc4cccc(-c5nncn5C5CC5)c4)c3)cnc21 [Example 143, N-(3-(4-cyclopropyl-4H-1,2,4-triazol-3-yl)phenyl)-4-(3-methyl-3H-imidazo[4,5-b]pyridin-6-yl)picolinamide]
14 | O=C(Nc1cccc(-c2nncn2C2CC2)c1)c1cc(-c2ccc(C3CC3)nc2)ncn1 [Example 144, N-(3-(4-cyclopropyl-4H-1,2,4-triazol-3-yl)phenyl)-6-(6-cyclopropylpyridin-3-yl)pyrimidine-4-carboxamide]
12 | O=C(Nc1cccc(-c2nncn2C2CC2)n1)c1cccc(-c2cccnc2)c1 [Example 130, N-(6-(4-cyclopropyl-4H-1,2,4-triazol-3-yl)pyridin-2-yl)-3-(pyridin-3-yl)benzamide]
11 | O=C(Nc1cccc(-c2nncn2C2CC2)c1)c1cc(-c2cnc3ccoc3c2)ccn1 [Example 142, N-(3-(4-cyclopropyl-4H-1,2,4-triazol-3-yl)phenyl)-4-(furo[3,2-b]pyridin-6-yl)picolinamide]
10 | O=C(Nc1cccc(-c2nncn2C2CC2)c1)c1cc(-c2cnc(C3CC3)cn2)ccn1 [Example 133, N-(3-(4-cyclopropyl-4H-1,2,4-triazol-3-yl)phenyl)-4-(5-cyclopropylpyrazin-2-yl)picolinamide]
8 | CCc1cncc(-c2ccnc(C(=O)Nc3cccc(-c4nncn4C4CC4)c3)c2)c1 [Example 146, N-(3-(4-cyclopropyl-4H-1,2,4-triazol-3-yl)phenyl)-5-ethyl-3,4′-bipyridine-2′-carboxamide]
8 | O=C(Nc1cccc(-c2nncn2C2CC2)n1)c1cccc(-c2ccc(C3CC3)nc2)c1 [Example 151, N-(6-(4-cyclopropyl-4H-1,2,4-triazol-3-yl)pyridin-2-yl)-3-(6-cyclopropylpyridin-3-yl)benzamide]
7 | COCCNc1ccc(-c2ccnc(C(=O)Nc3cccc(-c4nncn4C4CC4)c3)c2)cn1 [Example 136, N-(3-(4-cyclopropyl-4H-1,2,4-triazol-3-yl)phenyl)-6-(2-methoxyethylamino)-3,4′-bipyridine-2′-carboxamide]
6 | O=C(Nc1cccc(-c2nncn2C2CC2)c1)c1cc(-c2cnc3cc[nH]c3c2)ccn1 [Example 128, N-(3-(4-cyclopropyl-4H-1,2,4-triazol-3-yl)phenyl)-4-(1H-pyrrolo[3,2-b]pyridin-6-yl)picolinamide]
5 | CCc1cn(-c2ccnc(C(=O)Nc3cccc(-c4nncn4C4CC4)c3)c2)cn1 [Example 158, N-(3-(4-cyclopropyl-4H-1,2,4-triazol-3-yl)phenyl)-4-(4-ethyl-1H-imidazol-1-yl)picolinamide]
3 | Cc1cn(-c2ccnc(C(=O)Nc3cccc(-c4nncn4C4CC4)n3)c2)cn1 [Example 159, N-(6-(4-cyclopropyl-4H-1,2,4-triazol-3-yl)pyridin-2-yl)-4-(4-methyl-1H-imidazol-1-yl)picolinamide]
